From patent EP0747346B1, “N-acyl-2 aryl cyclopropylmethylamine derivatives as melatonergics” (BRISTOL-MYERS SQUIBB COMPANY, priority 1995, dated 1996)

Molecular target: T1, human ML1A (Homo sapiens, UniProt P48039)
T1 construct: expressed in transfected cells; host or cells: COS-1 cells, transient transfection (DEAE-dextran) with pcDNAI; membrane homogenates
Assay: Measurement of melatonergic binding: displacement of 2-[125I]-iodomelatonin from membranes of COS-1 cells transfected with human ML1A cDNA
Details: Binding affinity (IC50) at the human melatonin receptor, Table 5: displacement of 2-[125I]-Iodomelatonin; Formula I compounds with R1 and R = H, G = methylene
Protocol: Example 145 (Measurement of Melatonergic Binding)
The melatonergic binding of the compounds of Formula I was determined by a modification of the method of Reppert, S. M. et al. (Neuron, Volume 13, pages 1177-1185, 1994). […] The reagents, membranes, and other parameters used in the assay are described below: Reagents: • (a) 50 mM Tris buffer containing 12.5 mM MgCl2, and 2 mM EDTA (pH 7.4 at 37 °C). • (b) Wash buffer: 20 mM Tris base containing 2 mM MgCl2 (pH 7.4 at room temperature). • (c) 6-Chloromelatonin (10^-5 M final concentration). • (d) 2-[^125I]-Iodomelatonin (100 pM final concentration). (Source: NEN) Membrane preparation: The cDNA (human ML1A) in pcDNAI was introduced into COS-1 cells by the DEAE-dextran method. Three days later, after media removal, the plates were washed with buffered saline; the cells removed using Hank's balanced salt solution and pelleted. The supernant was discarded and the pellets frozen. For membrane homogenates, the pellets were thawed and resuspended in TME buffer, Tris base, MgCl2, EDTA (pH 7.4 at 37 °C), and supplemented with aprotinin, leupeptin, and phenylmethylsulfonyl fluoride. The cells were homogenized and centrifuged; the resulting pellet resuspended in TME and frozen. At assay, the small aliquot was thawed on ice and resuspended in TME buffer. Incubation: 37 °C for 1 hour. Reaction is terminated by filtration.

T1 sequence (P48039 whole entry): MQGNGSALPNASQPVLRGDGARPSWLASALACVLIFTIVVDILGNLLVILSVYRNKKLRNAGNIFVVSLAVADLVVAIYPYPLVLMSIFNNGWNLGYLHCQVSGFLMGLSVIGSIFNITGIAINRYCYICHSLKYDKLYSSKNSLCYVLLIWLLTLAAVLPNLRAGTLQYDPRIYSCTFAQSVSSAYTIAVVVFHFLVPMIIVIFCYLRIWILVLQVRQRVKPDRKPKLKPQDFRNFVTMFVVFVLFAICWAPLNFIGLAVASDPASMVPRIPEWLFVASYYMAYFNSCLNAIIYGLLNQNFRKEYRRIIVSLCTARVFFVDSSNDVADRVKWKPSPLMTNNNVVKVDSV

`CCCC(=O)NC[C@@H]1C[C@H]1c1cccc(OC(C)C)c1` (racemic) [Example 8, (trans)-N-[[2-[3-(Methylethoxy)phenyl]cyclopropyl]methyl] butanamide] and `CCCC(=O)NC[C@@H]1C[C@H]1c1cccc(F)c1` (racemic) [Example 44] fall in the same range of IC50: 40 to 250 nM for the first, 40 to 250 nM for the second.

`CCCC(=O)NC[C@@H]1C[C@H]1c1cccc(OC(F)(F)F)c1` (single isomer, unassigned) [Example 64] and `CCCC(=O)NC[C@@H]1C[C@H]1c1ccc(I)c(OC(F)(F)F)c1` (single isomer, unassigned) [Example 69] fall in the same range of IC50: 5 to 40 nM for the first, 5 to 40 nM for the second.

Compared with `CCCC(=O)NC[C@@H]1C[C@H]1c1cc(F)ccc1Br` (single isomer, unassigned) [Example 66], `CCCC(=O)NC[C@@H]1C[C@H]1c1cc(F)ccc1I` (single isomer, unassigned) [Example 70] is higher in IC50: 5 to 40 nM for the first, 40 to 250 nM for the second.

`CCCC(=O)NC[C@@H]1C[C@H]1c1ccc(I)c(F)c1` (single isomer, unassigned) [Example 71, (-)-(trans)-N-[[2-(3-Fluoro-4-iodophenyl)cycloprop-1-yl]methyl] butanamide] and `CCCC(=O)NC[C@@H]1C[C@H]1c1cccc(O)c1` (single isomer, unassigned) [Example 79] fall in the same range of IC50: 40 to 250 nM for the first, 40 to 250 nM for the second.

With `CCCC(=O)NC[C@@H]1C[C@H]1c1cccc(C(F)(F)C(F)(F)F)c1` (single isomer, unassigned) [Example 89] the IC50 was 40 to 250 nM.

Same assay, conditions: Binding affinity (IC50) at the human melatonin receptor, Table 6: displacement of 2-[125I]-Iodomelatonin; Formula I compounds with X = OCH3, Y and Z = H, R1 = H

Compared with `CCCC(=O)NC[C@H]1[C@H](c2cccc(OC)c2)C1(F)F` (racemic) [Example 12, (±)-(trans)-[2,2-Difluoro-3-(3-methoxyphenyl)-cyclopropylmethyl] butanamide], `CCCC(=O)NC[C@H]1[C@H](c2cccc(OC)c2)C1(C)C` (racemic) [Example 17, (trans)-N-[[3-(3-methoxyphenyl)-2,2-dimethyl-1-cyclopropyl]methyl]butanamide] is higher in IC50: less than 5 nM for the first, 250 to 600 nM for the second.

`CCCC(=O)NC(C)[C@@H]1C[C@H]1c1cccc(OC)c1` (single isomer, unassigned) [Example 136] gave an IC50 of 5 to 40 nM.
Compound `CCCC(=O)NC(C)[C@@H]1C[C@H]1c1cccc(OC)c1` (single isomer, unassigned; (-)) [Example 14, (-)-(trans)-N-[1-[2-(3-Methoxyphenyl)cyclopropyl]ethyl] butanamide] has an IC50 of 40 to 250 nM.

Same assay, conditions: Table 4 (continued): displacement of 2-[125I]-Iodomelatonin; Formula I compounds with X = OCH3, R = H, G = methylene

First: CCCC(=O)NC[C@@H]1C[C@H]1c1ccc(Cl)c(OC)c1 (racemic) [Example 27, (trans)-N-[[2-(4-Chloro-3-methoxyphenyl)cyclopropyl]methyl] butanamide]
Second: CCCC(=O)NC[C@@H]1C[C@H]1c1ccc(I)c(OC)c1 [Example 33, (-)-(trans)-N-[[2-(4-Iodo-3-methoxyphenyl)cycloprop-1-yl]methyl] butanamide]
The IC50 of the first is lower: less than 5 nM for the first, 5 to 40 nM for the second.

First: COc1cccc([C@@H]2C[C@H]2CNC(=O)CCCCl)c1 (single isomer, unassigned) [Example 35]
Second: COc1cccc([C@@H]2C[C@H]2CNC(C)=O)c1 [Example 41, (-)-(trans)-N-[[2-(3-Methoxyphenyl)cycloprop-1-yl]methyl] acetamide]
The IC50 of the first is higher: 5 to 40 nM for the first, less than 5 nM for the second.

First: COc1cccc([C@@H]2C[C@H]2CNC(=O)C2CCCC2)c1 (single isomer, unassigned) [Example 37]
Second: COc1cccc([C@@H]2C[C@H]2CNC(=O)C2CC2)c1 [Example 36, (-)-(trans)-N-[[2-(3-Methoxyphenyl)cycloprop-1-yl]methyl]cyclopropane carboxamide]
The IC50 of the first is higher: 250 to 600 nM for the first, less than 5 nM for the second.

`COc1cccc([C@@H]2C[C@H]2CNC(=O)CC(F)(F)F)c1` (single isomer, unassigned) [Example 42, (-)-(trans)-3,3,3-Trifluor-N-[[2-(3-methoxyphenyl)cycloprop-1-yl]methyl] propanamide] and `CNC(=O)NC[C@@H]1C[C@H]1c1cccc(OC)c1` [Example 39, (-)-(trans)-N-[[2-(3-Methoxyphenyl)cycloprop-1-yl]methyl]-N'-methyl urea] cannot be ordered by IC50: less than 5 nM for the first, less than 5 nM for the second.

First: CCCC(=O)NC[C@@H]1C[C@H]1c1cc(OC)ccc1I [Example 32, (-)-(trans)-N-[[2-(2-Iodo-5-methoxyphenyl)cyclopropyl]methyl] butanamide]
Second: CCCC(=O)NC[C@@H]1C[C@H]1c1cc(OC)ccc1-c1ccc(C(F)(F)F)cc1 [Example 34, (-)-(trans)-N-[[2-[4-Methoxy-4'-(trifluoromethyl) [1,1'-biphenyl]-2yl]cycloprop-1-yl]methyl] butanamide]
The IC50 of the first is lower: less than 5 nM for the first, 5 to 40 nM for the second.

Same assay, conditions: displacement of 2-[125I]-Iodomelatonin (100 pM); COS-1 membranes, human ML1A; 37 °C for 1 hour

Compared with `CCCC(=O)NC[C@@H]1C[C@H]1c1cccc(OCC2CC2c2cccc(OC)c2)c1` (mixture of isomers) [Example 132, (trans)-N-[[2-[3-[[2-(3-Methoxyphenyl)cycloprop-1-yl]methoxy]phenyl]cycloprop-1-yl]methyl] butanamide], `CCCC(=O)NC[C@@H]1C[C@H]1c1cccc(OCC2C(c3cccc(OC)c3)C2(C)C)c1` (some centres unmarked) [Example 131] is higher in IC50: less than 5 nM for the first, 5 to 40 nM for the second. The first is the more potent here.

First: CCCC(=O)NC[C@@H]1C[C@H]1c1cc(OC)c(Br)cc1Br (relative stereo) [Example 5, (trans)-N-[[2-(2,4-Dibromo-5-methoxyphenyl)cyclopropyl]methyl] butanamide]
Second: CCCC(=O)NC[C@@H]1C[C@H]1c1cc(OC)ccc1C#N [Example 10, (-)-(trans)-N-[[2-(2-Cyano-5-methoxyphenyl]cyclopropyl]methyl] butanamide]
The IC50 of the first is lower: less than 5 nM for the first, 5 to 40 nM for the second. The first is the more potent here.

Compared with `CCCC(=O)NC[C@@H]1C[C@H]1c1cc(OC)ccc1NC(=O)CCC` (relative stereo) [Example 13, (trans)-N-[[2-(2-Butyrylamino-5-methoxyphenyl)cyclopropyl]methyl] butanamide], `CCCC(=O)NC[C@@H]1C[C@H]1c1cccc(OC)c1` (single isomer, unassigned) [Example 3a, (+)-(trans)-N-[[2-(3-Methoxyphenyl)cyclopropyl]methyl]butanamide] is lower in IC50: 250 to 600 nM for the first, 5 to 40 nM for the second. The second is the more potent here.

First: CCCC(=O)NC[C@@H]1C[C@H]1c1cc(OC)ccc1C#Cc1ccccc1 (single isomer, unassigned) [Example 9a]
Second: CCCC(=O)NC[C@@H]1C[C@H]1c1cc(OC)ccc1-c1ccccc1 [Example 11, (-)-(trans)-N-[[2-(2-Phenyl-5-methoxyphenyl]cyclopropyl]methyl] butanamide]
The IC50 of the first is lower: less than 5 nM for the first, 5 to 40 nM for the second.

First: CCCC(=O)NC[C@@H]1C[C@H]1c1cc(OC)ccc1CCc1ccccc1 (single isomer, unassigned) [Example 9b]
Second: CCCC(=O)NC[C@@H]1C[C@H]1c1cccc(OC)c1 [Example 3b, (-)-(trans)-N-[[2-(3-Methoxyphenyl)cyclopropyl]methyl] butanamide]
The IC50 of the first is higher: 5 to 40 nM for the first, less than 5 nM for the second. The second is the more potent here.

`COc1cccc([C@@H]2C[C@H]2CNC(=O)C(C)C)c1` [Example 22, (-)-(trans)-N-[[2-(3-Methoxyphenyl)cyclopropyl]methyl]-2-methylpropanamide] was tested, and the IC50 was 5 to 40 nM.

Same assay, conditions: read-out: Binding affinity (IC50) at the human melatonin receptor; Table 5: displacement of 2-[125I]-Iodomelatonin; Formula I compounds with R1 and R = H, G = methylene

“(trans)-N-[2-[(3-Trideuteromethoxyphenyl)cycloprop-1-yl]methyl] butanamide [Example 111]” was tested, and the IC50 was less than 5 nM.
